Test results taken from patent US20260232774A1, “COMPOSITIONS AND METHODS FOR TREATING INTESTINAL MICROBIOME DYSBIOSIS” (The Regents of the University of Michigan, priority 2023, published 2026).

Test system: GVHD in GF B6 BMT recipients
Conditions: mouse, in vivo
From the text: (A) The details of the experimental design were shown in FIG. 12G to L. Quantification of iron in stool from colon and ileum in Allo B6 and Allo B6 deferasirox at 7 day and 21 day after BMT were shown (Day7, N=2, Day21, Vehicle: N=4, Deferasirox: N=2). (B) The percent of IFNγ+CD4, IFNγ+CD8, and Treg cells in spleen from recipients at day7 after BMT were shown (N=4). (C) The cytokine levels of IFNγ, TNFα, and IL17A in serum from recipients at day7 after BMT were shown (Vehicle: N=3, Deferasirox: N=4). (D to F) GF mice received BMT from BALB/c donor mice. BMT recipients were orally treated with deferasirox (20 mg/kg) and vehicle every day. (D) Hypoxyprobe staining and relative fluorescent intensity in colon from recipients 21 days after BMT (scale bar=50 μm). Three independent experiments were performed. Survival rate (E) and clinical GVHD score (F) of BMT recipients (Syn GF vehicle: N=2, Syn GF deferasirox: N=2, Allo GF vehicle: N=8, Allo GF deferasirox: N=10). The horizontal line in box (C) represents the median with the box bounding the interquartile range. The ends of the whisker lines represent the minimum and maximum values. […]
Because alteration of O2 affects host IECs in addition to the microbiome, we next determined whether restoring intestinal hypoxia by Fe chelation after allo-HSCT mitigated GVHD independent of its impact on dysbiosis. […]

With O=C(O)c1ccc(-n2nc(-c3ccccc3O)nc2-c2ccccc2O)cc1 [deferasirox] the “survival and GVHD of syngeneic GF mice” value was “survived without GVHD”.
